Measurements from patent US7759350B2, “Pyrimidine carboxamides” (Orchid Research Laboratories Ltd., priority 2005, dated 2010).

What was measured:
NCI-H460 = assay: Anti-cancer screen (MTT), NCI-H460; format: cell-based; conditions: Homo sapiens, NCI-H460; 48 hours, MTT
Method: (§1) Experimental drugs are screened for anti-cancer activity in three cell lines for their GI50, TGI and LC50 values (using five concentrations for each compound). The cell lines are maintained in DMEM containing 10% fetal bovine serum. 96 well microtiter plates are inoculated with cells in 100 μL for 24 h at 37° C., 5% CO2, 95% air and 100% relative humidity. 5000 HCT116 cells/well, 5000 NCIH460 cells/well, 10000 U251 cells/well and 5000 MDAMB231 cells/well are plated. A separate plate with these cell lines is also inoculated to determine cell viability before the addition of the compounds (T0).
Following 24 hours incubation, experimental drugs are added to the 96 well plates. […] Compounds are dissolved in dimethylsulfoxide (DMSO) to make 20 mM stock solutions on the day of drug addition and frozen at −20° C. […] Standard drugs whose anti-cancer activity has been well documented and which are regularly used are doxorubicin and SAHA.
(§2) Cells are incubated with compounds for 48 hours followed by the addition of 10 μL 3-(4,5-Dimethyl-2-thiazolyl)-2,5-diphenyl-2H-tetrazolium (MTT) solution per well and a subsequent incubation at 37° C., 5% CO2, 95% air and 100% relative humidity, protected from light. After 4 hours, well contents are aspirated carefully followed by addition of 150 μL DMSO per well. Plates are agitated to ensure solution of the formazan crystals in dimethylsulphoxide and absorbance read at 570 nm.
(§3) Percent growth is calculated for each compound's concentration relative to the control and zero measurement wells (To; viability right before compound addition). If a test well's O.D. value is greater than the To measurement for that cell line % Growth=(test−zero)/(control−zero)×100
(§4) If a test well's O.D. value is lower than the T0 measurement for that cell line, […]

IL-6 = assay: In vitro measurement of IL-6 in human PBMC; format: cell-based; conditions: LPS; for inhibition at 10 µM: Conc. 10 μM
Method: (§5) In vitro Measurement of Interleukin-6 (IL-6) & Interleukin-1β (IL1β)
(§6) This assay determines the effect of test compounds on the production of IL-6 and IL1β in human PBMC (Physiol. Res. 52: 593-598, 2003). Compounds were tested for their ability to inhibit the activity of IL-6 and IL1β in human PBMC. PBMC were isolated from blood using BD Vacutainer CPT™ Cell preparation tube (BD Bio Science) and suspended in RPMI medium. The test compounds were preincubated with PBMC (0.5 million/incubation well) for 15 minutes at 37° C. and then stimulated with Lipopolysaccharide (Escherichia coli: B4; 1 μg/ml) for 18 hours at 37° C. in 5% CO2. The levels of IL-6 and IL1β in cell culture medium were estimated using enzyme linked Immunosorbent assay performed in a 96 well format as per the procedure of the manufacturer (R&D Systems, Inc. 614 McKinley Place Nebr., Minneapolis, Minn. 55413, USA).

U251 = assay: Anti-cancer screen (MTT), U251; format: cell-based; conditions: Homo sapiens, U-251, 48 hours
Method: as §1
(§7) Following 24 hours incubation, experimental drugs are added to the 96 well plates. Each plate contains one of the above cell lines and the following in triplicate: five different concentrations (0.01, 0.1, 1, 10 and 100 μM) of four different compounds, appropriate dilutions of a cytotoxic standard and control (untreated) wells. Compounds are dissolved in dimethylsulfoxide (DMSO) to make 20 mM stock solutions on the day of drug addition and frozen at −20° C. Serial dilutions of these 20 mM stock solutions are made in complete growth medium such that 100 μL of these drug solutions in medium, of final concentrations equaling 0.01, 0.1, 1, 10 and 100 μM can be added to the cells in triplicate. Standard drugs whose anti-cancer activity has been well documented and which are regularly used are doxorubicin and SAHA.
as §2, §3, §4

IL-1β = assay: In vitro measurement of IL-1β in human PBMC; format: cell-based; conditions: LPS
Method: as §5, §6

HCT116 = assay: Anti-cancer screen (MTT), HCT116; format: cell-based; conditions: Homo sapiens, HCT-116, 48 hours
Method: as §1, §7, §2, §3, §4

TNF-α = assay: In vitro measurement of TNF-α in human PBMC; format: cell-based; conditions: LPS
Method: In Vitro Measurement of Tumor Necrosis Factor Alpha (TNF-α)
This assay determines the effect of test compounds on the production of TNF-α in human Peripheral Blood Mononuclear Cells (PBMC). Compounds were tested for their ability to inhibit the activity of TNF-α in human PBMC. PBMC were isolated from blood (from healthy volunteers) using BD Vacutainer CPT™ (Cell preparation tube, BD Bio Science) and suspended in RPMI medium (Physiol. Res. 52; 593-598, 2003). The test compounds were pre-incubated with PBMC (0.5 million/incubation well) for 15 minutes at 37° C. and then stimulated with Lipopolysaccharide (Escherichia coli: B4; 1 μg/ml) for 18 hours at 37° C. in 5% CO2. The levels of TNF-α in the cell culture medium were estimated using enzyme linked Immunosorbent assay performed in a 96 well format as per the procedure of the manufacturer (R&D Systems, Inc. 614 McKinley Place Nebr., Minneapolis, Minn. 55413, USA).

Question: Which results are given for `CCCCc1ccc(NC(=O)c2c(NC)nc(-c3ccc(SC)cc3)nc2SC)cc1` [Example 36]?
Answer: GI50 (NCI-H460): 3000 nM; inhibition at 0.1 µM (IL-6; Conc. 0.1 μM): 26.6%; GI50 (U251): 1800 nM; IL-1β Inhibition (%) (IL-1β; Conc. 0.1 μM): Not active

Question: What does the source list for `CNc1nc(-c2ccc(N(C)C)cc2)nc(SC)c1C(=O)Nc1ccc(OC)cc1` [Example 57, 2-[4-(Dimethylamino)phenyl]-4-(methylamino)-N-(4-methoxyphenyl)-6-(methylthio)pyrimidine-5-carboxamide]?
Answer: GI50 (NCI-H460): 7000 nM; GI50 (U251): 4000 nM

Question: Which melting point does the source give for `CSc1ccc(-c2nc(O)c(C(=O)Nc3ccc(C)cc3)c(SC)n2)cc1` [Example 1, 4-Hydroxy-N-(4-methylphenyl)-6-(methylthio)-2-[4-(methylthio)phenyl]pyrimidine-5-carboxamide] here?
Answer: 302 to 305 °C

Question: Which GI50 (NCI-H460) does the source give for `CNc1nc(-c2ccncc2)nc(SC)c1C(=O)Nc1ccc(C)cc1` [Example 24, 4-(Methylamino)-N-(4-methylphenyl)-6-(methylthio)-2-pyridin-4-ylpyrimidine-5-carboxamide] here?
Answer: 4000 nM

Question: What about the GI50 (HCT116) of the same compound?
Answer: 9900 nM

Question: For `CNc1nc(-c2ccncc2)nc(SC)c1C(=O)Nc1ccc(C(C)C)cc1` [Example 34, N-(4-Isoproylphenyl)-4-(methylamino)-6-(methylthio)-2-pyridin-4-ylpyrimidine-5-carboxamide], which GI50 (NCI-H460) is on record?
Answer: 900 nM

Question: And the GI50 (HCT116)?
Answer: 9000 nM

Question: With `CSc1ccc(-c2nc(O)c(C(=O)Nc3ccc(C)c(C)c3)c(SC)n2)cc1` [Example 2, 4-Hydroxy-N-(3,4-dimethylphenyl)-6-(methylthio)-2-[4-(methylthio)phenyl]pyrimidine-5-carboxamide] as the compound, how does the melting point read?
Answer: 303 to 305 °C

Question: For `CCc1ccc(NC(=O)c2c(NC)nc(-c3ccc(S(N)(=O)=O)cc3)nc2NC)cc1` [Example 16, 2-[4-(Aminosulfonyl)phenyl]-4,6-bis(methylamino)-N-(4-ethylphenyl)pyrimidine-5-carboxamide], which inhibition at 10 µM (TNF-α; at 10 μM) is on record?
Answer: 53.1%

Question: With `CCc1ccc(NC(=O)c2c(NC)nc(-c3ccncc3)nc2SC)cc1` [Example 21, N-(4-Ethylphenyl)-4-(methylamino)-6-(methylthio)-2-pyridin-4-ylpyrimidine-5-carboxamide] as the compound, how does the GI50 (NCI-H460) read?
Answer: 400 nM

Question: And the GI50 (HCT116)?
Answer: 9500 nM

Question: With `CNc1nc(-c2ccc(SC)cc2)nc(SC)c1C(=O)Nc1ccc(C)cc1C` [Example 39, N-(2,4-Dimethylphenyl)-4-(methylamino)-6-(methylthio)-2-[4-(methylthio)phenyl]pyrimidine-5-carboxamide] as the compound, how does the GI50 (NCI-H460) read?
Answer: 2000 nM

Question: What about the GI50 (U251) of the same compound?
Answer: 90 nM

Question: With `CNc1nc(-c2ccc(F)cc2)nc(SC)c1C(=O)Nc1ccc(SC)cc1` [Example 45, 2-(4-Fluorophenyl)-4-(methylamino)-6-(methylthio)-N-[4-(methylthio)phenyl]pyrimidine-5-carboxamide] as the compound, how does the GI50 (NCI-H460) read?
Answer: 400 nM

Question: What about the GI50 (U251) of the same compound?
Answer: 700 nM

Question: With `CSc1ccc(-c2nc(NN)c(C(=O)Nc3ccc(C)c(C)c3)c(SC)n2)cc1` [Example 48, N-(3,4-Dimethylphenyl)-4-hydrazino-6-(methylthio)-2-[4-(methylthio)phenyl]pyrimidine-5-carboxamide] as the compound, how does the GI50 (NCI-H460) read?
Answer: 5000 nM

Question: What about the GI50 (U251) of the same compound?
Answer: 3000 nM

Question: And the GI50 (HCT116)?
Answer: 2500 nM

Question: Which GI50 (NCI-H460) does the source give for `CSc1nc(-c2ccncc2)nc(NCCO)c1C(=O)Nc1ccc(Br)cc1` [Example 46, N-(4-Bromophenyl)-4-[(2-hydroxyethyl)amino]-6-(methylthio)-2-pyridin-4-ylpyrimidine-5-carboxamide] here?
Answer: 200 nM

Question: And the GI50 (U251)?
Answer: 200 nM

Question: Which results are given for `CSc1ccc(-c2nc(NCCO)c(C(=O)Nc3ccc(C)c(C)c3)c(SC)n2)cc1` [Example 32, N-(3,4-Dimethylphenyl)-4-[(2-hydroxyethyl)amino]-6-(methylthio)-2-[4-(methylthio)phenyl]pyrimidine-5-carboxamide]?
Answer: GI50 (U251): 3000 nM; GI50 (HCT116): 4000 nM

Question: Which melting point does the source give for `CNc1nc(-c2cccnc2)nc(SC)c1C(=O)Nc1ccc(OC)cc1.O=P(O)(O)O` [Example 59, N-(4-Methoxyphenyl)-4-(methylamino)-6-(methylthio)-2-pyridin-3-ylpyrimidine-5-carboxamide orthophosphoric acid salt] here?
Answer: 222 to 225 °C

Question: For `CSc1nc(-c2ccncc2)nc(NCCO)c1C(=O)Nc1ccc(Cl)cc1` [Example 47, N-(4-Chlorophenyl)-4-[(2-hydroxyethyl)amino]-6-(methylthio)-2-pyridin-4-ylpyrimidine-5-carboxamide], which GI50 (NCI-H460) is on record?
Answer: 100 nM

Question: And the GI50 (U251)?
Answer: 300 nM

Question: Which GI50 (NCI-H460) does the source give for `CSc1ccc(-c2nc(SC)c(C(=O)Nc3ccc(C)c(C)c3)c(N3CCNCC3)n2)cc1` [Example 42, N-(3,4-Dimethylphenyl)-6-(methylthio)-2-[4-(methylthio)phenyl]-4-piperazin-1-ylpyrimidine-5-carboxamide] here?
Answer: 3000 nM

Question: What about the inhibition at 10 µM (IL-6) of the same compound?
Answer: 92.2%

Question: And the GI50 (U251)?
Answer: 5000 nM

Question: What about the GI50 (HCT116) of the same compound?
Answer: 4000 nM

Question: And the “IL-1β Inhibition (%)” value (IL-1β; Conc. 10 μM)?
Answer: Not active

Question: With `CNc1nc(-c2ccc(SC)cc2)nc(SC)c1C(=O)Nc1ccc(OC)cc1` [Example 20, 4-(Methylamino)-N-(4-methoxyphenyl)-6-(methylthio)-2-[4-(methylthio)phenyl]pyrimidine-5-carboxamide] as the compound, how does the GI50 (NCI-H460) read?
Answer: 3200 nM

Question: With `CNc1nc(-c2cccnc2)nc(NC)c1C(=O)Nc1ccc(C)c(C)c1` [Example 7, N-(3,4-Dimethylphenyl)-4,6-bis(methylamino)-2-pyridin-3-ylpyrimidine-5-carboxamide] as the compound, how does the inhibition at 10 µM (IL-6) read?
Answer: 53.8%

Question: What about the melting point of the same compound?
Answer: 285 to 286 °C

Question: And the “IL-1β Inhibition (%)” value (IL-1β; Conc. 10 μM)?
Answer: Not active

Question: What about the inhibition at 0.1 µM (TNF-α) of the same compound?
Answer: 30.4%

Question: Which GI50 (NCI-H460) does the source give for `CNc1nc(-c2ccncc2)nc(SC)c1C(=O)Nc1ccc(F)cc1` [Example 18, N-(4-Fluorophenyl)-4-(methylamino)-6-(methylthio)-2-pyridin-4-ylpyrimidine-5-carboxamide] here?
Answer: 2000 nM

Question: What about the GI50 (HCT116) of the same compound?
Answer: 1200 nM

Question: Which GI50 (NCI-H460) does the source give for `CCOc1ccc(NC(=O)c2c(NC)nc(-c3ccc(SC)cc3)nc2SC)cc1` [Example 40, N-(4-Ethoxyphenyl)-4-(methylamino)-6-(methylthio)-2-[4-(methylthio)phenyl]pyrimidine-5-carboxamide] here?
Answer: 500 nM

Question: And the inhibition at 10 µM (IL-6)?
Answer: 61.5%

Question: What about the GI50 (U251) of the same compound?
Answer: 100 nM

Question: And the GI50 (HCT116)?
Answer: 2000 nM

Question: What about the “IL-1β Inhibition (%)” value (IL-1β; Conc. 10 μM) of the same compound?
Answer: Not active

Question: With `CCc1ccc(NC(=O)c2c(NC)nc(-c3ccc(S(N)(=O)=O)cc3)nc2SC)cc1` [Example 17, 2-[4-(Aminosulfonyl)phenyl]-N-(4-ethylphenyl)-4-(methylamino)-6-(methylthio)pyrimidine-5-carboxamide] as the compound, how does the inhibition at 0.1 µM (TNF-α) read?
Answer: 30.1%
